Laboratory results from US20170029841A1, “METHODS AND COMPOSITIONS FOR SELECTIVE REGULATION OF PROTEIN EXPRESSION” (priority 2015, published 2017).

Test system: maize tissue pools (tassel, ear, leaf, root, stem)
Test: siRNA profiling microarray assay of mts-siRNA sequences across maize tissues
Conditions: for 01DKD2 V8-V9 Tassel relative signal value: germplasm 01DKD2, V8-V9 tassel; for 01DKD2 V10-V12 Tassel relative signal value: germplasm 01DKD2, V10-V12 tassel; for 01DKD2 Other Tissue relative signal value: germplasm 01DKD2, combined signals from other tissue; for LH244 V8-V9 Tassel relative signal value: germplasm LH244, V8-V9 tassel; for LH244 V10-V12 Tassel relative signal value: germplasm LH244, V10-V12 tassel; for LH244 Other Tissue relative signal value: germplasm LH244, combined signals from other tissue
Description: A siRNA profiling microarray assay was performed using μParaflo® Microfluidics chips provided by LC Sciences LLC (Houston, Tex., USA) with 1,200 sequences selected from the thousands of mts-siRNA sequences identified from the differential bioinformatic analysis. The microarray chips contained triplicate probes of the complementary sequence for each of the 1,200 mts-siRNA sequences. Total RNA was purified from 26 maize tissue pools (duplicate or triplicate tissue pools) from either LH244 (ATCC deposit number PTA-1173) or 01DKD2 (I294213) (ATCC deposit number PTA-7859) inbred plants. Each of the 26 RNA samples were hybridized with the microarray chips that contain probes for the 1,200 mts-siRNA. Hybridization images were collected using a GenePix® 4000B laser scanner (Molecular Devices, Sunnyvale, Calif.) and digitized using Array-Pro® Analyzer image analysis software (Media Cybernetics, Rockville, Md.). Relative signal values were derived by background subtraction and normalization. Differentially expressed signals were determined by t-test with p<0.05. From the microarray analysis, about 500 mts-siRNA from the 1,200 were identified as being highly tassel-specific.
Selected mts-siRNA sequences aligning to one of the six cDNA sequences were used for further microarray analysis to determine differential expression across maize tissues. Microarray analysis for mts-siRNA sequences of normalized signal values for V8-V9 tassel, V10-V12 tassel, or combined signals from the other tissue for maize germplasm LH244 and 01DKD2 is presented in Tables 3-10. […] Signal value results are measured as relative signal values and standard error (p<0.05) is represented by (STDR). […] The mts-siRNA sequence corresponds to the sense or antisense strand of the corresponding mts-siRNA target sequence in the cDNA sequence. The mts-siRNA sequence may have a single nucleotide, a two nucleotide, or a three nucleotide mismatch with the aligned portion of the cDNA sequence, and the mts-siRNA sequence may align to the sense strand or antisense strand of the cDNA sequence. The mts-siRNA sequences provided here are found across different maize germplasms.

Row | Substance | 01DKD2 V8-V9 Tassel relative signal value | 01DKD2 V10-V12 Tassel relative signal value | 01DKD2 Other Tissue relative signal value | LH244 V8-V9 Tassel relative signal value | LH244 V10-V12 Tassel relative signal value | LH244 Other Tissue relative signal value
1 | SEQ ID NO: 67: mts-siRNA sequence aligning to cDNA SEQ ID NO: 21 (CCTATCTAGTGTATGACCAAT; expressed or natural sequence) | 123.5 | 107 | 4.3 | 216 | 62 | 3.3
2 | SEQ ID NO: 74: mts-siRNA sequence aligning to cDNA SEQ ID NO: 22 (AGGCCTCCCTTCCCTATG; expressed or natural sequence) | 43.5 | 171 | 45.8 | 83.5 | 129 | 164.2
3 | SEQ ID NO: 84: mts-siRNA sequence aligning to cDNA SEQ ID NO: 22 (AAGAAGGTGCTTGTTGTC; expressed or natural sequence) | 0 | 20 | 1 | 13 | 35.7 | 4.4
4 | SEQ ID NO: 43: mts-siRNA sequence aligning to cDNA SEQ ID NO: 19 (AGCACTCGAGCTTTCACGCCAACA; expressed or natural sequence) | 4 | 190.5 | 4.3 | 52.5 | 147.3 | 1
5 | SEQ ID NO: 40: mts-siRNA sequence aligning to cDNA SEQ ID NO: 18 (CCTTGCGCCTTAACTATCGTGC; expressed or natural sequence) | 7.5 | 452 | 2.8 | 119 | 448.7 | 1.5
6 | SEQ ID NO: 80: mts-siRNA sequence aligning to cDNA SEQ ID NO: 22 (CATCAACGACTACAACGGTGAA; expressed or natural sequence) | 2.5 | 230 | 0.5 | 138 | 383.3 | 0.7
7 | SEQ ID NO: 32: mts-siRNA sequence aligning to cDNA SEQ ID NO: 18 (TAGCCACACGGTCACGTTTGGAC; expressed or natural sequence) | 7.5 | 516 | 2.8 | 376.5 | 118 | 2
8 | SEQ ID NO: 70: mts-siRNA sequence aligning to cDNA SEQ ID NO: 22 (CATGCACTGGTGAGTCACTGTTG; expressed or natural sequence) | 3 | 873 | 4 | 56.5 | 694 | 1.8
9 | SEQ ID NO: 38: mts-siRNA sequence aligning to cDNA SEQ ID NO: 18 (CTCAACATCCGATTCACCCTCA; expressed or natural sequence) | 8.5 | 1305.5 | 3 | 768.5 | 1442.7 | 1.4
10 | SEQ ID NO: 42: mts-siRNA sequence aligning to cDNA SEQ ID NO: 18 (ACTACAGTGAGAGTCTAGGAAAGC; expressed or natural sequence) | 6 | 588 | 5.3 | 143.5 | 564.3 | 2.6
11 | SEQ ID NO: 66: mts-siRNA sequence aligning to cDNA SEQ ID NO: 21 (TGGTCATACACTAGATAGGGC; expressed or natural sequence) | 61 | 55.5 | 2.8 | 199.5 | 48 | 1.9
12 | SEQ ID NO: 58: mts-siRNA sequence aligning to cDNA SEQ ID NO: 20 (CGAGGTACCAACTAACATCGGT; expressed or natural sequence) | 88.5 | 327 | 2 | 215.5 | 349 | 0.7
13 | SEQ ID NO: 55: mts-siRNA sequence aligning to cDNA SEQ ID NO: 20 (CGGACATTTGCAGTTCTATGGT; expressed or natural sequence) | 73 | 405.5 | 1 | 377.5 | 581.7 | 1.1
14 | SEQ ID NO: 79: mts-siRNA sequence aligning to cDNA SEQ ID NO: 22 (CAAGGCAAGAAGGTGCTTGTTGTCC; expressed or natural sequence) | 5 | 290.5 | 2 | 197.5 | 269.3 | 1.9
15 | SEQ ID NO: 72: mts-siRNA sequence aligning to cDNA SEQ ID NO: 22 (GGCCTCCCTTCCCTATGGTAGCC; expressed or natural sequence) | 332.5 | 530 | 233.3 | 323.5 | 325.7 | 1324.8
16 | SEQ ID NO: 39: mts-siRNA sequence aligning to cDNA SEQ ID NO: 18 (CATCGACCAATGACATTCCCTC; expressed or natural sequence) | 16 | 1514.5 | 1.5 | 442.5 | 2157.3 | 0.6
17 | SEQ ID NO: 69: mts-siRNA sequence aligning to cDNA SEQ ID NO: 21 (GCTCATAAAATCACTGTTCAT; expressed or natural sequence) | 309.5 | 282.5 | 9.8 | 516 | 185 | 11.2
